In PubChem BioAssay AID624365 (Broad Institute, 2012):
“And” between values parts separate entries of the source, which are not always exact repeats. Equal entries are not always repeated. Records with an inconclusive call do not appear. The source made the active and inactive calls.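 How the source made its calls: active means fitted curve drops past -35% activity change at a concentration up to twice the top valid dose tested; inconclusive means no clear call, values can overlap the other calls; inactive means activity opposite to the expected decrease, or the rest.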

What was measured:
[1] = HepG2 cell viability loss, dose response, cytotoxicity control for LMP1 inhibitor project, CellTiter-Glo luminescence, dry powder (AID 624365); conditions: HepG2 viability, CellTiter-Glo luminescence, 48 h
[2] = system: HepG2 viability, CellTiter-Glo luminescence, 48 h; test: as above

Row | Compound | activity change, negative = cytotoxicity ([1]; at 19.5 µM (top of the series)) | AC35 [2] | further results
1 | C[C@@H]1CN([C@@H](C)CO)C(=O)c2cccc(NC(=O)Nc3cccc4ccccc34)c2O[C@H]1CN(C)C(=O)Nc1ccc(C(F)(F)F)cc1 | -1.58% (inactive) | – | –
2 | Cc1ccc(S(=O)(=O)NC(CC(C)C)C(=O)NCC(c2ccco2)N2CCCCC2)cc1 (centres undefined) | 14.4% (inactive) | – | –
3 | C/C(=N\NC(=S)N1CC2CCC(CC2)C1)c1cccc(C)n1 | -9.43% (inactive) | – | –
4 | COc1ccc(NC(=O)c2ccc(OC(C)C(=O)O)cc2)cc1Cl (centres undefined) | – | – | activity change, negative = cytotoxicity ([1]; at 21 µM (top of the series)): -17.9% (inactive)
5 | Nc1ccn([C@@H]2O[C@H](CO)[C@@H](O)C2O)c(=O)n1 (some centres undefined) | – | 7.36 µM | –
6 | CC(C)=CCN(C(=O)C#Cc1ccccc1)[C@H](CO)c1ccccc1 | – | 20.3 µM | –
7 | C[C@@H]1CCCCO[C@H](CN(C)CC2CCCCC2)[C@H](C)CN([C@@H](C)CO)C(=O)c2cc(NC(=O)NC3CCCCC3)ccc2O1 | -0.214% (inactive) | – | –
8 | Cc1cc(NC(=O)c2ccc3c(c2)OCCO3)no1 | 14.9% (inactive) | – | –
9 | CCc1ccc(/C=C/C(=O)C2C(=O)c3ccccc3C2=O)cc1 | -7.16% (inactive) | – | –
10 | C[C@H](CO)N1C[C@H](C)[C@@H](CN(C)CC2CC2)OCCCC[C@H](C)Oc2ccc(NC(=O)Nc3cccc4ccccc34)cc2C1=O | – | 79.9 µM | –
11 | O=C1/C(=C/c2ccncc2)SC(=S)N1Cc1ccccc1 | -5.23% (inactive) | – | –
12 | C[C@@H]1CCCCO[C@H](CN(C)C(=O)CCC(F)(F)F)[C@H](C)CN([C@@H](C)CO)C(=O)c2cc(NC(=O)CCC(F)(F)F)ccc2O1 | 6.76% (inactive) | – | –
13 | CC1=C(C(=O)OCc2ccc3c(c2)OCO3)C(c2ccc(F)cc2)NC(=O)N1 (centres undefined) | 2.83% (inactive) | – | –
14 | c1ccc(-c2cn3c4c(sc3n2)CCCC4)cc1 | -13.4% (inactive) | – | –
15 | C[C@@H]1CN([C@@H](C)CO)C(=O)c2cc(NC(=O)Nc3ccc4c(c3)OCO4)ccc2O[C@H]1CN(C)CC1CCCCC1 | – | 28.9 µM | –
16 | CCCSc1nnc2c3ccccc3n(Cc3ccccc3)c2n1 | -1.67% (inactive) | – | –
17 | CCc1ccc(/C=C2\SC(=S)N(CCCC(=O)Nc3ccccn3)C2=O)cc1 | -1.2% (inactive) | – | –
18 | CC12CCC3C(CC=C4CC(O)CCC43CO)C1CCC2OC(=O)c1ccccc1 (centres undefined) | 0.538% (inactive) | – | –
19 | CNC[C@@H]1Oc2ccc(NS(=O)(=O)c3cn(C)cn3)cc2CC(=O)N([C@H](C)CO)C[C@@H]1C | – | – | activity change, negative = cytotoxicity ([1]; at 21 µM (top of the series)): -1.51% (inactive)
20 | C[C@@H]1CCCCO[C@H](CN(C)C(=O)c2ccccc2)[C@H](C)CN([C@@H](C)CO)C(=O)c2cc(NC(=O)Nc3ccc(F)cc3)ccc2O1 | -6.27% (inactive) | – | –
21 | O=C(CCc1ccccc1)NC(c1cccs1)c1cc(Cl)c2cccnc2c1O (centres undefined) | 1.94% (inactive) | – | –
22 | C[C@H]1CCCCO[C@@H](CN(C)CC2CCCCC2)[C@@H](C)CN([C@@H](C)CO)C(=O)c2cc(NC(=O)C3CCCCC3)ccc2O1 | – | 21.4 µM | –

Row | Compound | activity change, negative = cytotoxicity ([1]; at 19.5 µM (top of the series)) | AC35 [2] | further results
23 | C/C(=N\NC(=S)Nc1cccc(Cl)c1)c1ccccn1 | – | 13.2 µM | –
24 | CC(=O)Nc1nc(C)c(-c2csc(Nc3ccc(O)cc3)n2)s1 | – | 19.6 µM | –
25 | Oc1cccc(C(Nc2nccs2)c2ccc3cccnc3c2O)c1 (centres undefined) | 3.87% (inactive) | – | –
26 | Cc1ccnc(NC(=O)c2ccc(C(=O)c3ccccc3)cc2)c1 | -6.85% (inactive) | – | –
27 | C/C(=N\NC(=S)Nc1ccccc1Cl)c1ccccn1 | – | 9.26 µM | –
28 | C[C@H](CO)N1C[C@H](C)[C@@H](CN(C)CC2CCCCC2)OCCCC[C@H](C)Oc2ccc(NC(=O)Nc3cccc4ccccc34)cc2C1=O | -6.9% (inactive) | – | –
29 | O=C(CSc1nnc2c3ccccc3n(Cc3ccccc3)c2n1)NCc1ccco1 | – | 19.5 µM | –
30 | C=C1C[C@]23C[C@@]1(O)CC[C@@H]2c1cccc(C)c1[C@@H]3C(=O)O | -23.5% (inactive) | – | –
31 | Cc1ccc(S(=O)(=O)Nc2ccc3c(c2)C(=O)N([C@@H](C)CO)C[C@H](C)[C@@H](CN(C)C(=O)CCC(F)(F)F)OCCCC[C@H](C)O3)cc1 | 1.23% (inactive) | – | –
32 | COc1ccc(C(=O)Nc2ccc3[nH]ccc3c2)cc1 | 1.7% (inactive) | – | –
33 | O=c1[nH]c(=O)n([C@H]2C[C@H](O)[C@@H](CO)O2)cc1C(F)(F)F | – | 14.3 µM | –
34 | COc1ccc(-c2csc3ncnc(NCCN4CCOCC4)c23)cc1 | -1.72% (inactive) | – | –
35 | C/C=C/C/C=C/CCC(=O)[C@H]1O[C@H]1C(N)=O | – | 14 µM and 60.1 µM | –
36 | C[C@@H]1CCCCO[C@H](CN(C)C(=O)NC2CCCCC2)[C@H](C)CN([C@@H](C)CO)C(=O)c2cc(NC(=O)C3CCCCC3)ccc2O1 | 11% (inactive) | – | –
37 | CCn1c2ccccc2c2cc(/C=N/n3cnnc3)ccc21 | – | 22.1 µM | –
38 | CSC(=S)N/N=C(\C)c1cccc(C)n1 | 1.36% (inactive) | – | –
39 | C[C@H](CO)N1C[C@H](C)[C@H](CN(C)C(=O)Nc2ccc(C(F)(F)F)cc2)OCCCC[C@H](C)Oc2ccc(NC(=O)Nc3ccc(F)cc3)cc2C1=O | – | 55.6 µM | –
40 | C/C(=N\NC(=S)Nc1ccccc1)c1ccccn1 | – | – | activity change, negative = cytotoxicity ([1]; at 10 µM (top of the series)): -2.52% (inactive)
41 | C[C@H](CO)N1C[C@H](C)[C@@H](CN(C)Cc2ccc(-c3ccccc3)cc2)Oc2ccc(NC(=O)Nc3cccc4ccccc34)cc2CC1=O | – | 37 µM | –
42 | COc1ccc2[nH]c(C(=O)N/N=C/c3ccc(O)cc3O)cc2c1 | – | 46.4 µM | –
43 | C[C@@H]1CN([C@@H](C)CO)C(=O)c2cc(NC(=O)Nc3ccc(C(F)(F)F)cc3)ccc2O[C@@H](C)CCCCO[C@@H]1CN(C)CC1CCCCC1 | – | 40.7 µM | –
44 | CCc1sc(C(=O)Nc2ncccc2O)cc1C | -0.832% (inactive) | – | –

Row | Compound | activity change, negative = cytotoxicity ([1]; at 19.5 µM (top of the series)) | AC35 [2] | further results
45 | C=CCN1Cc2ccccc2[C@@H]2OC(c3ccc(OCCCO)cc3)=N[C@]2(CCC(=O)OC(C)(C)C)C1=O | 4.76% (inactive) | – | –
46 | C[C@@H]1CCCCO[C@H](CN(C)S(=O)(=O)c2ccccc2)[C@@H](C)CN([C@@H](C)CO)C(=O)c2cc(N(C)C)ccc2O1 | -0.756% (inactive) | – | –
47 | C/C(=N\NC(=S)N1CCCCC1)c1cccc(C)n1 | – | 2.55 µM | –
48 | C/C(=N\NC(=S)N1CCN(c2ccccn2)CC1)c1ccccn1 | – | – | activity change, negative = cytotoxicity ([1]; at 10 µM (top of the series)): -18.8% (inactive)
49 | COc1ccc2nc(Nc3nc(C)c(CCC(C)C)c(=O)[nH]3)nc(C)c2c1 | – | 3.44 µM | –
50 | CCN1CCN(C(c2cccnc2)c2cc(Cl)c3cccnc3c2O)CC1 (centres undefined) | -19.9% (inactive) | – | –
51 | COc1ccc(-c2cc3nc4n(c(=O)c3s2)CCC4)cc1 | -14.3% (inactive) | – | –
52 | O=c1[nH]c(Nc2nc3ccccc3o2)nc2c1CCCC2 | -6.44% (inactive) | – | –
53 | Cc1c(NC(=O)c2cccc(NC(=O)COc3ccccc3C#N)c2)c(=O)n(-c2ccccc2)n1C | 0.795% (inactive) | – | –
54 | CSc1nc(-c2ccc(C)cc2)nc(C(Cl)Cl)n1 | – | 36 µM | –
55 | COc1cccc(/C=N/Nc2ncnc3c2ncn3Cc2ccccc2)c1O | – | 26.4 µM | –
56 | CC1CN(C(=O)CSc2nnc3c4ccccc4n(Cc4cccc(Cl)c4)c3n2)CCN1C(=O)c1ccccc1F (centres undefined) | -2.74% (inactive) | – | –
57 | Fc1ccc2c(c1)c1nnc(SCCN3CCOCC3)nc1n2Cc1ccccc1 | – | 33.7 µM | –
58 | Cc1ccc(NC(=O)C2CCN(S(=O)(=O)c3ccc4c(c3)NC(=O)C(C)S4)CC2)cc1Cl (centres undefined) | -15.1% (inactive) | – | –
59 | O=C(Nc1cc(C(F)(F)F)cc(C(F)(F)F)c1)Nc1cnn(-c2ccc([N+](=O)[O-])cc2)c1C(F)(F)F | 11.8% (inactive) | – | –
60 | C[C@@H]1CCCCO[C@@H](CN(C)Cc2ccccc2)[C@H](C)CN([C@H](C)CO)C(=O)c2cc(NC(=O)Nc3ccc4c(c3)OCO4)ccc2O1 | -6.99% (inactive) | – | –
61 | C[C@@H]1CN([C@@H](C)CO)C(=O)c2cc(NC(=O)Nc3ccc(C(F)(F)F)cc3)ccc2O[C@@H](C)CCCCO[C@H]1CN(C)Cc1ccc(C(F)(F)F)cc1 | -1.82% (inactive) | – | –
62 | C/C(=N\NC(=S)Nc1ccc(C)cc1)c1ccccn1 | – | 11.9 µM | –
63 | COCCCNC(=O)C(C)Sc1nnc2c3cc(C)ccc3n(Cc3ccccc3F)c2n1 (centres undefined) | -14.5% (inactive) | – | –
64 | C=C1C[C@]23C[C@@]1(O)CC[C@H]2[C@@]12C=C[C@H](O)[C@@](C)(C(=O)O1)[C@H]2[C@@H]3C(=O)O | – | – | activity change, negative = cytotoxicity ([1]; at 12 µM (top of the series)): 9.94% (inactive)
